Laboratory results published in BigSolDB 2.1.

CC1(C)C2CCC1(CS(=O)(=O)O)C(=O)C2 (stereo not drawn)
solubility (mole fraction) (in acetyl acetate, 305.7 K): 0.099 | solubility (mole fraction) (in acetyl acetate, 310.6 K): 0.122 | solubility (mole fraction) (in acetyl acetate, 315.1 K): 0.134 | solubility (mole fraction) (in acetyl acetate, 317.4 K): 0.15 | solubility (mole fraction) (in acetyl acetate, 321.4 K): 0.161 | solubility (mole fraction) (in acetyl acetate, 324.9 K): 0.173 | solubility (mole fraction) (in acetyl acetate, 328.9 K): 0.179 | solubility (mole fraction) (in acetyl acetate, 331.7 K): 0.181 | solubility (mole fraction) (in methyl acetate, 305.7 K): 0.0236 | solubility (mole fraction) (in methyl acetate, 310.6 K): 0.0278 | solubility (mole fraction) (in methyl acetate, 313.7 K): 0.0316 | solubility (mole fraction) (in methyl acetate, 315.1 K): 0.0339 | solubility (mole fraction) (in methyl acetate, 320.1 K): 0.0409 | solubility (mole fraction) (in methyl acetate, 321.4 K): 0.039 | solubility (mole fraction) (in methyl acetate, 324.9 K): 0.0459 | solubility (mole fraction) (in methyl acetate, 329.1 K): 0.0546 | solubility (mole fraction) (in methyl acetate, 334.6 K): 0.0726 | solubility (mole fraction) (in methyl acetate, 339.1 K): 0.0906
